Laboratory results reported in patent publication US20240307409A1, “ARGININE METHYLTRANSFERASE INHIBITOR AND USE THEREOF” (Cytosinlab Therapeutics Co., Ltd., priority 2021, published 2024).

Test system: MMA in RKO cells
Test: RKO In Cell Western assay (MMA primary antibody)
Assay type: cell-based
Details: Homo sapiens, 72 hours, read-out: RKO ICW_EC30
Protocol: RKO was seeded at a concentration of 20,000 cells/ml into a polylysine-coated 96-well plate (Corning #3599), with 2,000 cells per well and 100 μL of culture mediumper well. 500 nL of compound was added to the 96-well plate. 3) The 96-well plate was incubated in a 37° C., 5% CO2 incubator for 72 hours. After three days, the 96-well plate was taken from the incubator, 100 μL of 8% paraformaldehyde solution was added to each well, and the plate was placed at room temperature for 15 min. After 15 min, the liquid in the plate was shaken out and the plate was washed three times with phosphate buffer (1*PBS). The liquid in the plate was shaken out and 200 μL of membrane-breaking buffer (0.1% (v/v) Tween-20 in PBS) was added and the plate was incubated on a shaker for 30 min. After half an hour, the liquid in the plate was shaken out, and blocking buffer was added and the plate was incubated for two hours at room temperature with shaking. After that, the liquid in the plate was shaken off, and the blocking solution containing primary antibody (MMA primary antibody, CST #8711S, 1:1000 v/v) was added to the 96-well plate and the plate was incubated at 4° C. overnight with shaking. The next day, the plate was washed three times with washing solution (0.05% (v/v) Tween-20 in PBS), and a blocking solution containing secondary antibody (goat anti-rabbit IgG (H+L) Invitrogen #31460, 1:10,000 v/v) was added and the plate was incubated for two hours at room temperature. Afterwards, the 96-well plate was washed four times with washing solution. The TMB mixture was added to the 96-well plate and then the plate was incubated for 15 minutes at room temperature with shaking. After that, the reaction terminating solution was added, and the value was read at OD450 nm using an microplate reader. The plate was washed three times with washing solution, and 50 μL of janusgreen staining solution was added, and the plate was incubated for 15 minutes at room temperature with shaking. The reaction was washed ten times with water until no color residue was left. 200 μL of 0.5 M hydrochloric acid solution was added to each well and the plate was incubated for 10 min at room temperature. The value was read at OD595 nm using Flexstation.
Firstly, the ratio OD450/OD595 was calculated for each well
Each plate had six DMSO negative control groups (ZPE) and six 10 μM positive control groups (HPE), and the average of the control group ratios was used to determine the percentage of activation for each test well. The compounds to be tested were triple diluted with DMSO for a total of 8 concentration points with a starting concentration of 5 μM. The equation for calculating the activation percentage of each test well was: […]

Compound | EC30 [µM]
CNCCN(C)Cc1ccccc1C1CCN(c2ccccc2)CC1 [P023] | < 0.25
CNCCN(C)Cc1ncccc1N1CCc2ccccc2CC1 [P118] | < 0.25
CCOCC1(COCC)CCC(c2cccnc2CN(C)CCNC)CC1 [P207] | < 0.25
